Data on one molecule can be found in patent US20100024572A1, “POLYMER NEMS FOR CELL […] MICRO[…] P[…] FOR MICRO-BIOCALORIMETER” (CALIFORNIA INSTITUTE OF TECHNOLOGY, priority 2006, published 2010).

The test relates to individual adherent cells. As to the kind of experiment: Force measurement from a single adherent cell on microfluidic embedded polymer NEMS force sensor. The test is classed as cell-based. Particulars: 200 pN force resolution, 10 ms time resolution. The text has this:
Successful micro-fluidic encapsulation is routine and consistently performed at very high yields, (>90%). The force sensing capabilities of the devices have been tested and calibrated by perturbing the force sensors with glass micro-needles mounted on piezo-electric actuators, data shown in FIG. 6A. The force sensors have been tested in micro-fluidics be measuring their response to shear forces generated by fluid flow. The force sensors have been successfully used to measure forces exerted by individual adherent cells and to study the mechanical response of those cells to cytoskeleton perturbing reagents such as Cytochalasin D.
Such measurements were performed with 200 pN force resolution—an improvement of 25 fold over prior art—and 10 ms time resolution—and improvement of 300 fold over prior art.
These measurements were performed with 200 pN force resolution—an improvement of 25 fold over prior art—and 10 ms time resolution—and improvement of 300 fold over prior art.

Take `C=C1[C@@H](C)[C@H]2[C@H](Cc3ccccc3)NC(=O)[C@]23[C@H](OC(C)=O)/C=C/[C@@](C)(O)C(=O)[C@@H](C)C/C=C/[C@H]3[C@@H]1O` [Cytochalasin D]: under “after removal of Cytochalasin D”, the “force exerted by a single cell (force vs. time) when Cytochalasin D is removed” value is given as “recovery of the force”. For the same molecule, the “force exerted by a single cell (force vs. time) when Cytochalasin D is introduced” value (stable force in growth media before) is “collapse of that force”.
